According to US12723063B2, “GIPR-agonist compounds” (Eli Lilly and Company, priority 2019, dated 2026):
*1 amine or outer side, *2 acyl side, *3 side chain or, on linkers, in order; H or OH if unused. Where a SMILES comes first, the peptide text is derived from it. Side-chain parts run from the residue outwards. [ ]: non-standard residue; d: D form. The star is where a group is joined. C20 diacid = O=C(O)CCCCCCCCCCCCCCCCCCC(=O)*; γGlu = O=C(O)[C@H](CCC(=O)[*:2])N[*:1]; αMeL = CC(C)C[C@](C)(N)C(=O)O; Orn = NCCC[C@H](N)C(=O)O; AEEA = NCCOCCOCC(=O)O; Aib = CC(C)(N)C(=O)O

Columns and labels:
human GcgR = molecular target: T1, human GcgR (Homo sapiens, UniProt P47871); experiment: [125I]-Glucagon binding, SPA with WGA beads, 0.1% bacitracin; details: geometric mean, read-out: hGcgR Ki
T1 construct: expressed in transfected cells; crude membranes
T1 sequence (P47871 26-477): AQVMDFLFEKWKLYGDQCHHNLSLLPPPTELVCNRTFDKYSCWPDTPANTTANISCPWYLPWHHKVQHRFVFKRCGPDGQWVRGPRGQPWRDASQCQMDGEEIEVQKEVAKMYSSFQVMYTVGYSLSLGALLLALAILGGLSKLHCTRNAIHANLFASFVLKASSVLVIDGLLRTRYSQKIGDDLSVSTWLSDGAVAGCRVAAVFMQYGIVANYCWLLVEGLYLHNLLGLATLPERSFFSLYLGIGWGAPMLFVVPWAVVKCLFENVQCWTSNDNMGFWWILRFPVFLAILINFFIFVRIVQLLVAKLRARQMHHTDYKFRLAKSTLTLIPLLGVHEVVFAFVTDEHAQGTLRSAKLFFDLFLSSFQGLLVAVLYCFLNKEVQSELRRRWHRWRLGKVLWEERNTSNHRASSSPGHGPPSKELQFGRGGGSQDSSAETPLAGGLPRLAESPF
How it was run: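 SPA competition binding with WGA beads on crude membranes from HEK293 cells stably expressing hGcgR. Buffer: 25 mM HEPES pH 7.4, 2.5 mM CaCl2, 1 mM MgCl2, 0.1% bacitracin, 0.003% Tween-20; 10-point 3-fold dilutions, NSB with 1 μM Gcg.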

human GIPR = molecular target: T2, human GIPR (Homo sapiens, UniProt P48546); experiment: [125I]-GIP binding, SPA with WGA beads, 0.1% bacitracin; details: geometric mean, read-out: hGIPR Ki
T2 construct: expressed in transfected cells; crude membranes
T2 sequence (P48546 22-466): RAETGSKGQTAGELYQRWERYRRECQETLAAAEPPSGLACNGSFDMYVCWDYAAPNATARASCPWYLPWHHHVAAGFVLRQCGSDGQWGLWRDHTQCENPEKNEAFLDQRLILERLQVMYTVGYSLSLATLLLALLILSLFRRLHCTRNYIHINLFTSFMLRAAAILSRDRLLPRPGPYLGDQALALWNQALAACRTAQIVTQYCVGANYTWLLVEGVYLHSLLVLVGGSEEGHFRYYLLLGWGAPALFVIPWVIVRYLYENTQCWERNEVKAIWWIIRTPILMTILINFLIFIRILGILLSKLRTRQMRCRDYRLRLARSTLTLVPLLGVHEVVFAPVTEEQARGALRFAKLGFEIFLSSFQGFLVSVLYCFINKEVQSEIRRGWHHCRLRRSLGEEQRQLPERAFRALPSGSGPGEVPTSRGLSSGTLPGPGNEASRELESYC
How it was run: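 Ki values are geometric means (SEM, n independent days), derived from four-parameter nonlinear regression of IC50. Membranes came from hGIPR-expressing CHO cells.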

human GLP-1R = molecular target: T3, human GLP-1R (Homo sapiens, UniProt P43220); experiment: [125I]-GLP-1 binding, SPA with WGA beads, 0.1% bacitracin; details: geometric mean, read-out: hGLP1R Ki
T3 construct: expressed in transfected cells; crude membranes
T3 sequence (P43220 24-463): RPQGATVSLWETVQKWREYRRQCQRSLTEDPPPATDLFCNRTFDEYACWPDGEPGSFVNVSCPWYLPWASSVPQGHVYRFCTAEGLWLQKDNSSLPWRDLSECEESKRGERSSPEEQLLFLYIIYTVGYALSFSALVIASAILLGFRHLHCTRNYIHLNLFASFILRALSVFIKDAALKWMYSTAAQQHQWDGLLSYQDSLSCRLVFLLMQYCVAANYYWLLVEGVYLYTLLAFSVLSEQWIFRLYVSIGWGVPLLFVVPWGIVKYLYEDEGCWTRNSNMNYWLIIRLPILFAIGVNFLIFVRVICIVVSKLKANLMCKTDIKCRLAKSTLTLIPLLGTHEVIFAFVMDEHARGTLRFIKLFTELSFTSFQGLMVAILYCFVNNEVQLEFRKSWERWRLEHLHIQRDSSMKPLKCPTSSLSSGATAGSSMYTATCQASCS
How it was run: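 Binding buffer was 25 mM HEPES pH 7.4 with 2.5 mM CaCl2, 1 mM MgCl2, 0.1% (w/v) bacitracin, 0.003% Tween-20 and EDTA-free protease inhibitors. Four-parameter regression gave IC50, converted to Ki (geometric mean, SEM, n independent days).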

SMILES	Ki (human GcgR) [nM]	Ki (human GIPR) [nM]	Ki (human GLP-1R) [nM]
CC[C@H](C)[C@H](NC(=O)[C@H](CO)NC(=O)[C@H](Cc1ccc(O)cc1)NC(=O)[C@H](CC(=O)O)NC(=O)[C@H](CO)NC(=O)[C@@H](NC(=O)[C@H](Cc1ccccc1)NC(=O)[C@@H](NC(=O)CNC(=O)[C@H](CCC(=O)O)NC(=O)[C@@H](C)NC(=O)[C@@H](N)Cc1ccc(O)cc1)[C@@H](C)O)[C@@H](C)CC)C(=O)N[C@@H](CC(C)C)C(=O)N[C@@H](CC(C)C)C(=O)N[C@@H](CC(=O)O)C(=O)N[C@@H](CCCCN)C(=O)N[C@@H](CCCCNC(=O)COCCOCCNC(=O)COCCOCCNC(=O)CC[C@H](NC(=O)CCCCCCCCCCCCCCCCCCC(=O)O)C(=O)O)C(=O)N[C@@H](Cc1c[nH]cn1)C(=O)N[C@@H](CCC(N)=O)C(=O)N[C@@H](CCC(N)=O)C(=O)N[C@@H](CC(=O)O)C(=O)N[C@@H](Cc1ccccc1)C(=O)N[C@H](C(=O)N[C@@H](CC(N)=O)C(=O)N[C@@H](Cc1c[nH]c2ccccc12)C(=O)N[C@@H](CC(C)C)C(=O)N[C@@H](CC(C)C)C(=O)N[C@@H](C)C(=O)NCC(=O)NCC(=O)N1CCC[C@H]1C(=O)N[C@@H](CO)C(=O)N[C@@H](CO)C(=O)NCC(=O)N[C@@H](C)C(=O)N1CCC[C@H]1C(=O)N1CCC[C@H]1C(=O)N1CCC[C@H]1C(=O)N[C@@H](CO)C(N)=O)C(C)C [Example 10] (H-Y[dA]EGTFISDYSILLDKK([AEEA-AEEA-γGlu-C20 diacid])HQQDFVNWLLAGGPSSGAPPPS-NH2)	> 230	0.159	60.7
CC[C@H](C)[C@H](NC(=O)[C@H](CCCCN)NC(=O)[C@H](CC(=O)O)NC(=O)[C@H](CC(C)C)NC(=O)[C@](C)(CC(C)C)NC(=O)[C@@H](NC(=O)[C@H](CO)NC(=O)[C@H](Cc1ccc(O)cc1)NC(=O)[C@H](CC(=O)O)NC(=O)[C@H](CO)NC(=O)[C@@H](NC(=O)[C@H](Cc1ccccc1)NC(=O)[C@@H](NC(=O)CNC(=O)[C@H](CCC(=O)O)NC(=O)C(C)(C)NC(=O)[C@@H](N)Cc1ccc(O)cc1)[C@@H](C)O)[C@@H](C)CC)[C@@H](C)CC)C(=O)N[C@@H](Cc1c[nH]cn1)C(=O)N[C@@H](CCC(N)=O)C(=O)NC(C)(C)C(=O)N[C@@H](CC(=O)O)C(=O)N[C@@H](Cc1ccccc1)C(=O)N[C@H](C(=O)N[C@@H](CCC(=O)O)C(=O)N[C@@H](Cc1ccc(O)cc1)C(=O)N[C@@H](CCCCNC(=O)COCCOCCNC(=O)COCCOCCNC(=O)CC[C@H](NC(=O)CCCCCCCCCCCCCCCCCCC(=O)O)C(=O)O)C(=O)N[C@@H](CC(C)C)C(=O)N[C@@H](CCC(=O)O)C(=O)N[C@@H](CCC(N)=O)C(=O)NCC(=O)N1CCC[C@H]1C(=O)N[C@@H](CO)C(=O)N[C@@H](CO)C(=O)NCC(=O)N[C@@H](C)C(=O)N1CCC[C@H]1C(=O)N1CCC[C@H]1C(=O)N1CCC[C@H]1C(=O)N[C@@H](CO)C(N)=O)C(C)C [Example 92] (H-Y[Aib]EGTFISDYSI[αMeL]LDKIHQ[Aib]DFVEYK([AEEA-AEEA-γGlu-C20 diacid])LEQGPSSGAPPPS-NH2)	> 958	0.0331	> 902
CC[C@H](C)[C@H](NC(=O)[C@H](Cc1ccccc1)NC(=O)[C@@H](NC(=O)CNC(=O)[C@H](CCC(=O)O)NC(=O)C(C)(C)NC(=O)[C@@H](N)Cc1ccc(O)cc1)[C@@H](C)O)C(=O)N[C@@H](CO)C(=O)N[C@@H](CC(=O)O)C(=O)N[C@@H](Cc1ccc(O)cc1)C(=O)N[C@@H](CO)C(=O)N[C@H](C(=O)N[C@@](C)(CC(C)C)C(=O)N[C@@H](CC(C)C)C(=O)N[C@@H](CC(=O)O)C(=O)N[C@@H](CCCCN)C(=O)N[C@@H](CCCCNC(=O)COCCOCCNC(=O)COCCOCCNC(=O)CC[C@H](NC(=O)CCCCCCCCCCCCCCCCCCC(=O)O)C(=O)O)C(=O)N[C@@H](Cc1c[nH]cn1)C(=O)N[C@@H](CCC(N)=O)C(=O)NC(C)(C)C(=O)N[C@@H](CC(=O)O)C(=O)N[C@@H](Cc1ccccc1)C(=O)N[C@H](C(=O)N[C@@H](CCC(=O)O)C(=O)N[C@@H](Cc1ccncc1)C(=O)N[C@@H](CC(C)C)C(=O)N[C@@H](CC(C)C)C(=O)N[C@@H](C)C(=O)N[C@@H](C)C(=O)NCC(=O)N1CCC[C@H]1C(=O)N[C@@H](CO)C(=O)N[C@@H](CO)C(=O)NCC(=O)N[C@@H](C)C(=O)N1CCC[C@H]1C(=O)N1CCC[C@H]1C(=O)N1CCC[C@H]1C(=O)N[C@@H](CO)C(N)=O)C(C)C)[C@@H](C)CC [Example 78]	505	0.0236	394
CC[C@H](C)[C@H](NC(=O)[C@H](CO)NC(=O)[C@H](Cc1ccc(O)cc1)NC(=O)[C@H](CC(=O)O)NC(=O)[C@H](CO)NC(=O)[C@@H](NC(=O)[C@H](Cc1ccccc1)NC(=O)[C@@H](NC(=O)CNC(=O)[C@H](CCC(=O)O)NC(=O)[C@@H](C)NC(=O)[C@@H](N)Cc1ccc(O)cc1)[C@@H](C)O)[C@@H](C)CC)C(=O)N[C@@H](CC(C)C)C(=O)N[C@@H](CC(C)C)C(=O)N[C@@H](CC(=O)O)C(=O)N[C@@H](CCCCN)C(=O)N[C@@H](CCCCNC(=O)COCCOCCNC(=O)COCCOCCNC(=O)CC[C@H](NC(=O)CCCCCCCCCCCCCCCCCCC(=O)O)C(=O)O)C(=O)N[C@@H](Cc1c[nH]cn1)C(=O)N[C@@H](CCC(N)=O)C(=O)NC(C)(C)C(=O)N[C@@H](CC(=O)O)C(=O)N[C@@H](Cc1ccccc1)C(=O)N[C@H](C(=O)N[C@@H](CC(N)=O)C(=O)N[C@@H](Cc1c[nH]c2ccccc12)C(=O)N[C@@H](CC(C)C)C(=O)N[C@@H](CC(C)C)C(=O)N[C@@H](C)C(=O)N[C@@H](CCC(N)=O)C(=O)NCC(=O)N1CCC[C@H]1C(=O)N[C@@H](CO)C(=O)N[C@@H](CO)C(=O)NCC(=O)N[C@@H](C)C(=O)N1CCC[C@H]1C(=O)N1CCC[C@H]1C(=O)N1CCC[C@H]1C(=O)N[C@@H](CO)C(N)=O)C(C)C [Example 9] (H-Y[dA]EGTFISDYSILLDKK([AEEA-AEEA-γGlu-C20 diacid])HQ[Aib]DFVNWLLAQGPSSGAPPPS-NH2)	> 230	0.11	168
CC[C@H](C)[C@H](NC(=O)[C@H](CCCN)NC(=O)[C@H](CC(=O)O)NC(=O)[C@H](CC(C)C)NC(=O)[C@](C)(CC(C)C)NC(=O)[C@@H](NC(=O)[C@H](CO)NC(=O)[C@H](Cc1ccc(O)cc1)NC(=O)[C@H](CC(=O)O)NC(=O)[C@H](CO)NC(=O)[C@@H](NC(=O)[C@H](Cc1ccccc1)NC(=O)[C@@H](NC(=O)CNC(=O)[C@H](CCC(=O)O)NC(=O)C(C)(C)NC(=O)[C@@H](N)Cc1ccc(O)cc1)[C@@H](C)O)[C@@H](C)CC)[C@@H](C)CC)C(=O)N[C@@H](Cc1c[nH]cn1)C(=O)N[C@@H](CCC(N)=O)C(=O)NC(C)(C)C(=O)N[C@@H](CCC(=O)O)C(=O)N[C@@H](Cc1ccccc1)C(=O)N[C@H](C(=O)N[C@@H](CCC(=O)O)C(=O)N[C@@H](Cc1ccc(O)cc1)C(=O)N[C@@H](CCCCNC(=O)COCCOCCNC(=O)COCCOCCNC(=O)CC[C@H](NC(=O)CCCCCCCCCCCCCCCCCCC(=O)O)C(=O)O)C(=O)N[C@@H](CC(C)C)C(=O)N[C@@H](CCC(=O)O)C(=O)N[C@@H](CCC(N)=O)C(=O)NCC(=O)N1CCC[C@H]1C(=O)N[C@@H](CO)C(=O)N[C@@H](CO)C(=O)NCC(=O)N[C@@H](C)C(=O)N1CCC[C@H]1C(=O)N1CCC[C@H]1C(=O)N1CCC[C@H]1C(=O)N[C@@H](CO)C(N)=O)C(C)C [Example 106] (H-Y[Aib]EGTFISDYSI[αMeL]LD[Orn]IHQ[Aib]EFVEYK([AEEA-AEEA-γGlu-C20 diacid])LEQGPSSGAPPPS-NH2)	304	0.0918	> 910
CC[C@H](C)[C@H](NC(=O)[C@H](CO)NC(=O)[C@H](Cc1ccc(O)cc1)NC(=O)[C@H](CC(=O)O)NC(=O)[C@H](CO)NC(=O)[C@@H](NC(=O)[C@H](Cc1ccccc1)NC(=O)[C@@H](NC(=O)CNC(=O)[C@H](CCC(=O)O)NC(=O)C(C)(C)NC(=O)[C@@H](N)Cc1ccc(O)cc1)[C@@H](C)O)[C@@H](C)CC)C(=O)N[C@@H](C)C(=O)N[C@@H](CC(C)C)C(=O)N[C@@H](CC(=O)O)C(=O)N[C@@H](CCCCN)C(=O)N[C@H](C(=O)N[C@@H](Cc1c[nH]cn1)C(=O)N[C@@H](CCC(N)=O)C(=O)NC(C)(C)C(=O)N[C@@H](CCC(=O)O)C(=O)N[C@@H](Cc1ccccc1)C(=O)N[C@H](C(=O)N[C@@H](CC(N)=O)C(=O)N[C@@H](Cc1ccc(O)cc1)C(=O)N[C@@H](CCCCNC(=O)COCCOCCNC(=O)COCCOCCNC(=O)CC[C@H](NC(=O)CCCCCCCCCCCCCCCCCCC(=O)O)C(=O)O)C(=O)N[C@@H](CC(C)C)C(=O)N[C@@H](C)C(=O)NCC(=O)NCC(=O)N1CCC[C@H]1C(=O)N[C@@H](CO)C(=O)N[C@@H](CO)C(=O)NCC(=O)N[C@@H](C)C(=O)N1CCC[C@H]1C(=O)N1CCC[C@H]1C(=O)N1CCC[C@H]1C(=O)N[C@@H](CO)C(N)=O)C(C)C)[C@@H](C)CC [Example 96] (H-Y[Aib]EGTFISDYSIALDKIHQ[Aib]EFVNYK([AEEA-AEEA-γGlu-C20 diacid])LAGGPSSGAPPPS-NH2)	> 960	0.232	> 908
